The source made the active and inactive calls. How the calls were made is not given here.
Target: Influenza A virus M2 proton channel (A/TW/4845/1999 H1N1)
Experiment: M2 proton channel binding, NMR based, influenza A virus H1N1 strain (AID 1549)
Details: NMR binding screen, M2 protein

Structure (SMILES)	Kd
O=C1C=CC(=O)N1c1ccccc1O	> 4 mM (inactive)
O=C1CCC(=O)N1c1nc2ccccc2s1	> 4 mM (inactive)
OCc1ccccc1N1CCOCC1	> 4 mM (inactive)
NS(=O)(=O)c1ccccc1Cl	> 4 mM (inactive)
O=C(O)c1ccnc2ccccc12	> 4 mM (inactive)
CCOC(=O)c1cnn2ccccc12	> 4 mM (inactive)
CC(C)=CCCC1(C)C=Cc2c(O)c3c(c(CC=C(C)C)c2O1)OC12C(=CCCC1C(C)(C)O[C@@]2(C/C=C(\C)C(=O)O)C(=O)O)C3=O (some centres undefined)	> 4 mM (inactive)
C=CCNC(=O)c1nn2cccnc2c1Cl	> 4 mM (inactive)
CC(CO)NC(=O)C1C=C2c3cccc4[nH]cc(c34)C[C@H]2N(C)C1 (some centres undefined)	> 4 mM (inactive)
OCc1ccc2occc2c1	> 4 mM (inactive)
CC(=O)c1nnc2cc(C)nn2c1C	> 4 mM (inactive)
O=C1c2ccncc2C(=O)N1CO	> 4 mM (inactive)
CSc1cc(C)[nH]c(=O)n1	> 4 mM (inactive)
Nc1ccccc1C(=O)N1CCNC(=O)C1	> 4 mM (inactive)
NC1=NC(=O)/C(=C/c2ccccc2[N+](=O)[O-])S1	> 4 mM (inactive)
O=C(O)CCc1nc2ccccc2[nH]c1=O	> 4 mM (inactive)
COc1ccccc1NC(=O)c1cc[n+]([O-])cc1	> 4 mM (inactive)
Cc1ccccc1NC(=O)c1ccccc1	> 4 mM (inactive)
CN(C)C(=O)Oc1ccc(-c2nnco2)cc1	> 4 mM (inactive)
Cc1nn2c(=O)nc3sc4c(c3c2[nH]c1=O)CCCC4	> 4 mM (inactive)
N=C1/C(=C\c2ccccc2)C(=O)N=C2SC=NN12	> 4 mM (inactive)
O=C(NCCO)NC(=S)c1ccccc1	> 4 mM (inactive)
CN(C)S(=O)(=O)c1ccc(N2CCOCC2)nc1	> 4 mM (inactive)
CC(C)NC(=O)c1cc(-n2cnnc2)ccc1Cl	> 4 mM (inactive)
CN1CCC(NC(=O)c2c(F)cccc2Cl)CC1	> 4 mM (inactive)

Structure (SMILES)	Kd
Cc1noc(C)c1C(=O)N1CCN(c2ncccn2)CC1	> 4 mM (inactive)
OCc1ccc(Oc2ccccc2)nc1	> 4 mM (inactive)
CC(=O)N(C)Cc1nc2ccccc2n1C	> 4 mM (inactive)
ON=c1ccc2nc3ccccc3nc2cc1	> 4 mM (inactive)
NCc1ccc2sccc2c1	> 4 mM (inactive)
Cn1cnc2nc3n(c2c1=O)CCC3	> 4 mM (inactive)
CC(=O)O[C@@H]1CC2C(C)(C)[C@H](O)C[C@H](O)[C@]2(C)C2CC[C@@]3(C)C(=CC(=O)O[C@H]3c3ccoc3)[C@@]21C (some centres undefined)	> 4 mM (inactive)
COc1ccccc1-c1noc(-c2ccco2)n1	> 4 mM (inactive)
Cc1nnc(-n2cnc3ccccc32)c2ccccc12	> 4 mM (inactive)
O=C(NC(=S)NCc1cccnc1)c1ccco1	> 4 mM (inactive)
NC(Cc1c[nH]c2ccccc12)C(=O)O (centres undefined)	> 4 mM (inactive)
CSc1nc2nccc(N)n2n1	> 4 mM (inactive)
O=c1cnnc(Nc2ccc(O)cc2)[nH]1	> 4 mM (inactive)
OC1CC2CCC1C2 (centres undefined)	> 4 mM (inactive)
CC(=O)C1CC[C@H]2C3CC[C@H]4C[C@H](O)CC[C@]4(C)C3CC[C@]12C (some centres undefined)	> 4 mM (inactive)
O=C(O)c1ccc(NC(=O)c2cccs2)cc1	> 4 mM (inactive)
CSc1ncc(C(=O)O)n1Cc1ccccc1	> 4 mM (inactive)
O=S1(=O)CCC(NCc2ccccc2)C1 (centres undefined)	> 4 mM (inactive)
O=C(O)CSCc1c(F)cccc1Cl	> 4 mM (inactive)
O=C(CSc1ncn[nH]1)c1ccc2c(c1)OCCO2	> 4 mM (inactive)
CC1=NCCc2c1[nH]c1cc(O)ccc21	> 4 mM (inactive)
NC(=O)c1ccsc1NC(=O)C1=COCCO1	> 4 mM (inactive)
O=C(Oc1ccc2c(c1)OCC2=O)c1ccccc1	> 4 mM (inactive)
Cn1nnc2cc(C(=O)NC3CCCCC3)ccc21	> 4 mM (inactive)
